Test results as given in ChEMBL document CHEMBL1201862, “PubChem BioAssay data set” (2004).
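Following 48 hours of exposure in 96-well plates, responses at five concentrations were used to interpolate endpoints linearly. Abbreviation: GI50, concentration required for 50% inhibition of growth.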 Calls of active or inactive are those of the source. Rule as the data show it: active = GI50 up to about 1.1 µM and inactive = higher.

Legend:
Experiment in all cases: growth of human tumour cells (NCI), 48 h
UACC-62 = test system: UACC-62
NCI-H522 = test system: NCI-H522
Malme-3M = test system: Malme-3M
OVCAR-8 = test system: OVCAR-8
HOP-62 = test system: HOP-62
SF-295 = test system: SF-295
TK-10 = test system: TK-10
SW-620 = test system: SW-620
K562 = test system: K562
U-251 = test system: U-251
SK-OV-3 = test system: SK-OV-3
IGROV-1 = test system: IGROV-1
SK-MEL-2 = test system: SK-MEL-2
A549 = test system: A549
MDA-N = test system: MDA-N
786-0 = test system: 786-0
HCC 2998 = test system: HCC 2998
NCI/ADR-RES = test system: NCI/ADR-RES
COLO 205 = test system: COLO 205
ACHN = test system: ACHN

| Structure (SMILES) | GI50 (UACC-62) | GI50 (NCI-H522) | GI50 (Malme-3M) | GI50 (OVCAR-8) | GI50 (HOP-62) | GI50 (SF-295) | GI50 (TK-10) | GI50 (SW-620) | GI50 (K562) | GI50 (U-251) | GI50 (SK-OV-3) | GI50 (IGROV-1) | GI50 (SK-MEL-2) | GI50 (A549) | GI50 (MDA-N) | GI50 (786-0) | GI50 (HCC 2998) | GI50 (NCI/ADR-RES) | GI50 (COLO 205) | GI50 (ACHN) |
| --- | --- | --- | --- | --- | --- | --- | --- | --- | --- | --- | --- | --- | --- | --- | --- | --- | --- | --- | --- | --- |
| C/C=C\C(CC(=O)NCCc1c[nH]c2ccccc12)CC(=O)OC (stereo not given) | > 100 µM (inactive) | > 100 µM (inactive) | > 100 µM (inactive) | > 100 µM (inactive) | > 100 µM (inactive) | > 100 µM (inactive) | > 100 µM (inactive) | > 100 µM (inactive) | > 100 µM (inactive) | > 100 µM (inactive) | > 100 µM (inactive) | > 100 µM (inactive) | > 100 µM (inactive) | > 100 µM (inactive) | > 100 µM (inactive) | > 100 µM (inactive) | > 100 µM (inactive) | > 100 µM (inactive) | > 100 µM (inactive) | > 100 µM (inactive) |
| CC(Oc1ccccc1Cl)C(=O)NN1C(=O)CC(=O)N(c2ccccc2)C1=S (stereo not given) | 33.3 µM (inactive) | 37 µM (inactive) | > 100 µM (inactive) | 41.4 µM (inactive) | 46.7 µM (inactive) | 39.1 µM (inactive) | 74.8 µM (inactive) | 55.7 µM (inactive) | 33.7 µM (inactive) | 41 µM (inactive) | 51.5 µM (inactive) | 52.6 µM (inactive) | 34.4 µM (inactive) | 41.1 µM (inactive) | 82.2 µM (inactive) | 94.8 µM (inactive) | 82.2 µM (inactive) | 38.5 µM (inactive) | 32.2 µM (inactive) | 38.3 µM (inactive) |
| CC[C@@]1(O)C(=O)OCc2c1c(Cl)c1n(c2=O)Cc2cc3ccccc3nc2-1 | 0.528 µM (active) | 1.69 µM (inactive) | 4.53 µM (inactive) | 3.05 µM (inactive) | 0.733 µM (active) | 1.22 µM (inactive) | 19 µM (inactive) | 1.95 µM (inactive) | 2.1 µM (inactive) | 1.07 µM (active) | 4.24 µM (inactive) | 4.08 µM (inactive) | 12.3 µM (inactive) | 2.06 µM (inactive) | 7.24 µM (inactive) | 1.22 µM (inactive) | 3.4 µM (inactive) | 1.8 µM (inactive) | 5.52 µM (inactive) | 1.16 µM (inactive) |
| COC(=O)[C@]1(c2cc3ccccc3[nH]2)CC2CNC1C1OC(C)(C)OC21 (stereo not given in full) | > 100 µM (inactive) | > 100 µM (inactive) | > 100 µM (inactive) | > 100 µM (inactive) | > 100 µM (inactive) | > 100 µM (inactive) | > 100 µM (inactive) | > 100 µM (inactive) | 73.6 µM (inactive) | > 100 µM (inactive) | > 100 µM (inactive) | > 100 µM (inactive) | > 100 µM (inactive) | > 100 µM (inactive) | 75.9 µM (inactive) | > 100 µM (inactive) | > 100 µM (inactive) | > 100 µM (inactive) | > 100 µM (inactive) | > 100 µM (inactive) |
| CCc1c2c([nH]c(=S)c1C#N)CCC2 | > 100 µM (inactive) | > 100 µM (inactive) | > 100 µM (inactive) | > 100 µM (inactive) | > 100 µM (inactive) | > 100 µM (inactive) | > 100 µM (inactive) | > 100 µM (inactive) | > 100 µM (inactive) | > 100 µM (inactive) | > 100 µM (inactive) | > 100 µM (inactive) | > 100 µM (inactive) | > 100 µM (inactive) | > 100 µM (inactive) | > 100 µM (inactive) | > 100 µM (inactive) | > 100 µM (inactive) | > 100 µM (inactive) | > 100 µM (inactive) |
| Cn1c2ccccc2c(=O)c2c(O)cc3c(c21)CC(C1(C)CO1)O3 (stereo not given) | 2.16 µM (inactive) | 2.93 µM (inactive) | 10.5 µM (inactive) | 0.966 µM (active) | 3.15 µM (inactive) | 9.44 µM (inactive) | 11.4 µM (inactive) | 1.17 µM (inactive) | 0.26 µM (active) | 3.16 µM (inactive) | 5.53 µM (inactive) | 5.87 µM (inactive) | 0.887 µM (active) | 5.16 µM (inactive) | 1.38 µM (inactive) | 1.71 µM (inactive) | 1.79 µM (inactive) | 1.32 µM (inactive) | 6.1 µM (inactive) | 2 µM (inactive) |
